# Non-standard residues stand in square brackets, D forms with d. Residues, ends and D or L forms follow the SMILES beside them. pGlu = O=C1CC[C@@H](C(=O)O)N1; Abu = CC[C@H](N)C(=O)O
# Molecular target: T1, Orexin/Hypocretin receptor type 1 (Homo sapiens, UniProt O43613)
# T1 sequence (O43613 whole entry): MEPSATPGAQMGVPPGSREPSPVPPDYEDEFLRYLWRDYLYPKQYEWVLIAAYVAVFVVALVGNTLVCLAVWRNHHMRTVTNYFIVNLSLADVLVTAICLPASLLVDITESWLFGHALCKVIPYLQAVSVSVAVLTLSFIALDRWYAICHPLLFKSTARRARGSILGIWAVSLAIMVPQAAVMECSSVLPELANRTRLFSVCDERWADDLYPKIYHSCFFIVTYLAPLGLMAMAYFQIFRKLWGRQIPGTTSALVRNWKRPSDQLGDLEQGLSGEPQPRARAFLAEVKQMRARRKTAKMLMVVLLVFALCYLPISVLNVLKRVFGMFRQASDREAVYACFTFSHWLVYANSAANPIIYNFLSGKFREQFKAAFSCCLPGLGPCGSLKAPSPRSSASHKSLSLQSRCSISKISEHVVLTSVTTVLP
# Experiment: Effective agonist concentration to human orexin receptor type 1 determined using the Xlfit program
# Type: functional
row,Compound,EC50
1,CC[C@H](C)[C@H](NC(=O)CNC(=O)[C@H](C)NC(=O)[C@H](C)NC(=O)[C@H](Cc1cnc[nH]1)NC(=O)[C@H](CC(N)=O)NC(=O)CNC(=O)[C@H](CO)NC(=O)[C@H](C)NC(=O)[C@H](CCC(N)=O)NC(=O)[C@H](CC(C)C)NC(=O)[C@H](CC(C)C)NC(=O)[C@H](CCCNC(=N)N)NC(=O)[C@H](CCC(N)=O)NC(=O)[C@H](CC(C)C)NC(=O)[C@H](CCCNC(=N)N)NC(=O)CNC(=O)[C@H](CCC(N)=O)NC(=O)[C@@H]1CCCN1C(=O)CN)C(=O)N[C@@H](CC(C)C)C(=O)N[C@H](C(=O)N[C@@H](CCSC)C(N)=O)[C@@H](C)O (H-GPQGRLQRLLQASGNHAAGILTM-NH2),1.7 µM
2,CC[C@H](C)[C@H](NC(=O)CNC(=O)[C@H](C)NC(=O)[C@H](C)NC(=O)[C@H](Cc1c[nH]cn1)NC(=O)[C@H](CC(N)=O)NC(=O)CNC(=O)[C@H](C)NC(=O)CNC(=O)[C@H](Cc1c[nH]cn1)NC(=O)[C@H](CC(C)C)NC(=O)[C@H](CC(C)C)NC(=O)[C@H](CCC(=O)O)NC(=O)[C@H](Cc1ccc(O)cc1)NC(=O)[C@H](CC(C)C)NC(=O)[C@H](CCCN=C(N)N)NC(=O)[C@H](CS)NC(=O)[C@H](CO)NC(=O)[C@H](CS)NC(=O)[C@@H](NC(=O)[C@H](CCCCN)NC(=O)[C@H](CCC(N)=O)NC(=O)[C@H](CCCN=C(N)N)NC(=O)[C@H](CS)NC(=O)[C@H](CS)NC(=O)[C@H](CC(=O)O)NC(=O)[C@@H]1CCCN1)[C@@H](C)O)C(=O)N[C@@H](CC(C)C)C(=O)N[C@H](C(=O)N[C@@H](CC(C)C)C(N)=O)[C@@H](C)O (H-PDCCRQKTCSCRLYELLHGAGNHAAGILTL-NH2),0.64 µM
3,CC[C@H](C)[C@H](NC(=O)CNC(=O)[C@H](C)NC(=O)[C@H](C)NC(=O)[C@H](Cc1c[nH]cn1)NC(=O)[C@H](CC(N)=O)NC(=O)CNC(=O)[C@H](CO)NC(=O)[C@H](C)NC(=O)[C@H](CCC(N)=O)NC(=O)[C@H](CC(C)C)NC(=O)[C@H](CC(C)C)NC(=O)[C@H](CCCN=C(N)N)NC(=O)[C@H](CCC(N)=O)NC(=O)[C@H](CC(C)C)NC(=O)[C@H](CCCN=C(N)N)NC(=O)CNC(=O)[C@@H]1CCCN1C(=O)[C@H](CC(C)C)NC(=O)CN)C(=O)N[C@@H](CC(C)C)C(=O)N[C@H](C(=O)N[C@@H](CCSC)C(N)=O)[C@@H](C)O (H-GLPGRLQRLLQASGNHAAGILTM-NH2),1.2 µM
4,CC[C@H](C)[C@H](NC(=O)CNC(=O)[C@H](C)NC(=O)[C@H](C)NC(=O)[C@H](Cc1c[nH]cn1)NC(=O)[C@H](CC(N)=O)NC(=O)CN)C(=O)N[C@@H](CC(C)C)C(=O)N[C@H](C(=O)N[C@@H](CC(C)C)C(N)=O)[C@@H](C)O (H-GNHAAGILTL-NH2),> 1000 µM
5,CC[C@H](C)[C@H](NC(=O)CNC(=O)[C@H](C)NC(=O)[C@H](C)NC(=O)[C@H](Cc1c[nH]cn1)NC(=O)[C@H](CC(N)=O)NC(=O)CNC(=O)[C@H](CO)NC(=O)[C@H](C)NC(=O)[C@H](CCC(N)=O)NC(=O)[C@H](CC(C)C)NC(=O)[C@H](CC(C)C)NC(=O)[C@H](CCCNC(=N)N)NC(=O)[C@H](C)NC(=O)[C@H](CC(C)C)NC(=O)[C@H](CCCNC(=N)N)NC(=O)CNC(=O)[C@H](CCC(N)=O)NC(=O)[C@H](CC(C)C)NC(=O)CN)C(=O)N[C@@H](CC(C)C)C(=O)N[C@H](C(=O)N[C@@H](CCSC)C(=O)O)[C@@H](C)O (H-GLQGRLARLLQASGNHAAGILTM-OH),1.3 µM
6,CC[C@H](NC(=O)[C@H](CO)NC(=O)[C@H](CS)NC(=O)[C@@H](NC(=O)[C@H](CCCCN)NC(=O)[C@H](CCC(N)=O)NC(=O)[C@H](CCCN=C(N)N)NC(=O)[C@H](CC)NC(=O)[C@H](CS)NC(=O)[C@H](CC(=O)O)NC(=O)[C@@H]1CCCN1C(=O)[C@H](CC(C)C)NC(=O)[C@@H]1CCCN1C(=O)[C@@H]1CCC(=O)N1)[C@@H](C)O)C(=O)N[C@@H](CCCN=C(N)N)C(=O)N[C@@H](CC(C)C)C(=O)N[C@@H](Cc1ccc(O)cc1)C(=O)N[C@@H](CCC(=O)O)C(=O)N[C@@H](CC(C)C)C(=O)N[C@@H](CC(C)C)C(=O)N[C@@H](Cc1c[nH]cn1)C(=O)NCC(=O)N[C@@H](C)C(=O)NCC(=O)N[C@@H](CC(N)=O)C(=O)N[C@@H](Cc1c[nH]cn1)C(=O)N[C@@H](C)C(=O)N[C@@H](C)C(=O)NCC(=O)N[C@H](C(=O)N[C@@H](CC(C)C)C(=O)N[C@H](C(=O)N[C@@H](CC(C)C)C(=O)O)[C@@H](C)O)[C@@H](C)CC ([pGlu]PLPDC[Abu]RQKTCS[Abu]RLYELLHGAGNHAAGILTL-OH),1.34 µM
7,CC[C@H](C)[C@H](NC(=O)CNC(=O)[C@H](C)NC(=O)[C@H](C)NC(=O)[C@H](Cc1c[nH]cn1)NC(=O)[C@H](CC(N)=O)NC(=O)CNC(=O)[C@H](CO)NC(=O)[C@H](C)NC(=O)[C@H](CCC(N)=O)NC(=O)[C@H](CC(C)C)NC(=O)[C@H](CC(C)C)NC(=O)[C@H](CCCN=C(N)N)NC(=O)[C@H](CCC(N)=O)NC(=O)[C@H](CC(C)C)NC(=O)[C@H](CCCN=C(N)N)NC(=O)CNC(=O)[C@H](CCC(N)=O)NC(=O)[C@H](C)NC(=O)CN)C(=O)N[C@@H](CC(C)C)C(=O)N[C@H](C(=O)N[C@@H](CCSC)C(N)=O)[C@@H](C)O (H-GAQGRLQRLLQASGNHAAGILTM-NH2),7.41 µM
8,CC[C@H](C)[C@H](NC(=O)CNC(=O)[C@H](C)NC(=O)[C@H](C)NC(=O)[C@H](Cc1cnc[nH]1)NC(=O)[C@H](CC(N)=O)NC(=O)CNC(=O)[C@H](CO)NC(=O)[C@H](C)NC(=O)[C@H](CCC(N)=O)NC(=O)[C@H](CC(C)C)NC(=O)[C@H](CC(C)C)NC(=O)[C@H](CCCNC(=N)N)NC(=O)[C@H](CCC(N)=O)NC(=O)[C@H](CC(C)C)NC(=O)[C@H](CCCNC(=N)N)NC(=O)CNC(=O)[C@@H](N)CCC(N)=O)C(=O)N[C@@H](CC(C)C)C(=O)N[C@H](C(=O)N[C@@H](CCSC)C(N)=O)[C@@H](C)O (H-QGRLQRLLQASGNHAAGILTM-NH2),22.2 µM
9,CC[C@H](C)[C@H](NC(=O)CNC(=O)[C@H](C)NC(=O)[C@H](C)NC(=O)[C@H](Cc1cnc[nH]1)NC(=O)[C@H](CC(N)=O)NC(=O)CNC(=O)[C@H](CO)NC(=O)[C@H](C)NC(=O)[C@H](CCC(N)=O)NC(=O)[C@H](CC(C)C)NC(=O)[C@H](CC(C)C)NC(=O)[C@H](CCCNC(=N)N)NC(=O)[C@H](CCC(N)=O)NC(=O)[C@H](CC(C)C)NC(=O)[C@H](CCCNC(=N)N)NC(=O)CNC(=O)[C@H](C)NC(=O)[C@H](CC(C)C)NC(=O)CN)C(=O)N[C@@H](CC(C)C)C(=O)N[C@H](C(=O)N[C@@H](CCSC)C(N)=O)[C@@H](C)O (H-GLAGRLQRLLQASGNHAAGILTM-NH2),1.64 µM
10,CC[C@H](C)[C@H](NC(=O)CNC(=O)[C@H](C)NC(=O)[C@H](C)NC(=O)[C@H](Cc1c[nH]cn1)NC(=O)[C@H](CC(N)=O)NC(=O)CNC(=O)[C@H](C)NC(=O)CNC(=O)[C@H](Cc1c[nH]cn1)NC(=O)[C@H](CC(C)C)NC(=O)[C@H](CC(C)C)NC(=O)[C@H](CCC(=O)O)NC(=O)[C@H](Cc1ccc(O)cc1)NC(=O)[C@H](CC(C)C)NC(=O)[C@H](CCCN=C(N)N)NC(=O)[C@H](CS)NC(=O)[C@H](CO)NC(=O)[C@H](CS)NC(=O)[C@@H](NC(=O)[C@H](CCCCN)NC(=O)[C@H](CCC(N)=O)NC(=O)[C@H](CCCN=C(N)N)NC(=O)[C@H](CS)NC(=O)[C@@H](N)CS)[C@@H](C)O)C(=O)N[C@@H](CC(C)C)C(=O)N[C@H](C(=O)N[C@@H](CC(C)C)C(N)=O)[C@@H](C)O (H-CCRQKTCSCRLYELLHGAGNHAAGILTL-NH2),0.81 µM

# Next, values leading:
row,EC50,Compound
1,> 1000 µM,CC[C@H](C)[C@H](NC(=O)CNC(=O)[C@H](C)NC(=O)[C@H](C)NC(=O)[C@H](Cc1cnc[nH]1)NC(=O)[C@H](CC(N)=O)NC(=O)CNC(=O)[C@H](CO)NC(=O)[C@H](C)NC(=O)[C@H](CCC(N)=O)NC(=O)[C@H](CC(C)C)NC(=O)[C@@H](N)CC(C)C)C(=O)N[C@@H](CC(C)C)C(=O)N[C@H](C(=O)N[C@@H](CCSC)C(N)=O)[C@@H](C)O (H-LLQASGNHAAGILTM-NH2)
2,1.46 µM,CC[C@H](C)[C@H](NC(=O)CNC(=O)[C@H](C)NC(=O)[C@H](C)NC(=O)[C@H](Cc1c[nH]cn1)NC(=O)[C@H](CC(N)=O)NC(=O)CNC(=O)[C@H](C)NC(=O)[C@H](C)NC(=O)[C@H](CCC(N)=O)NC(=O)[C@H](CC(C)C)NC(=O)[C@H](CC(C)C)NC(=O)[C@H](CCCN=C(N)N)NC(=O)[C@H](CCC(N)=O)NC(=O)[C@H](CC(C)C)NC(=O)[C@H](CCCN=C(N)N)NC(=O)CNC(=O)[C@H](CCC(N)=O)NC(=O)[C@H](CC(C)C)NC(=O)CN)C(=O)N[C@@H](CC(C)C)C(=O)N[C@H](C(=O)N[C@@H](CCSC)C(=O)O)[C@@H](C)O (H-GLQGRLQRLLQAAGNHAAGILTM-OH)
3,> 1000 µM,CC[C@H](C)[C@H](NC(=O)CNC(=O)[C@H](C)NC(=O)[C@H](C)NC(=O)[C@H](Cc1cnc[nH]1)NC(=O)[C@H](CC(N)=O)NC(=O)CNC(=O)[C@H](CO)NC(=O)[C@H](C)NC(=O)[C@H](CCC(N)=O)NC(=O)[C@H](CC(C)C)NC(=O)[C@H](CC(C)C)NC(=O)[C@H](CCCNC(=N)N)NC(=O)[C@H](CCC(N)=O)NC(=O)[C@@H]1CCCN1C(=O)[C@H](CCCNC(=N)N)NC(=O)CNC(=O)[C@H](CCC(N)=O)NC(=O)[C@H](CC(C)C)NC(=O)CN)C(=O)N[C@@H](CC(C)C)C(=O)N[C@H](C(=O)N[C@@H](CCSC)C(N)=O)[C@@H](C)O (H-GLQGRPQRLLQASGNHAAGILTM-NH2)
4,> 1000 µM,CC[C@H](C)[C@H](NC(=O)CNC(=O)[C@H](C)NC(=O)[C@H](C)NC(=O)[C@H](Cc1c[nH]cn1)NC(=O)[C@H](CC(N)=O)NC(=O)CNC(=O)[C@H](C)NC(=O)CNC(=O)[C@H](Cc1c[nH]cn1)NC(=O)[C@H](CC(C)C)NC(=O)[C@@H](N)CC(C)C)C(=O)N[C@@H](CC(C)C)C(=O)N[C@H](C(=O)N[C@@H](CC(C)C)C(N)=O)[C@@H](C)O (H-LLHGAGNHAAGILTL-NH2)

# Source: ChEMBL document CHEMBL1148480, “Structure-activity studies of orexin a and orexin B at the human orexin 1 and orexin 2 receptors led to orexin 2 receptor selective and orexin 1 receptor preferring ligands” (J Med Chem, 2004)
